Measurements from patent publication US11739122B2, “Glycopeptide antibiotic compounds, methods for producing the same, and uses thereof” (Academia Sinica, priority 2019, dated 2023).
Converted amounts (≈) assume the structure as drawn.

Assays:
MRSA ATCC 43300 = assay: MIC, broth microdilution; format: cell-based, Staphylococcus aureus; conditions: Staphylococcus aureus
How it was run: (§1)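 No visible growth defines the MIC. Plates are incubated 18-24 h at 37° C using a broth inoculum set near 1×10^8 CFU mL^−1.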

MRSA ATCC 700698 hVISA = assay: MIC, broth microdilution; format: cell-based, Staphylococcus aureus; conditions: Staphylococcus aureus
How it was run: as §1

MRSA ATCC 700787 VRSA = assay: MIC, broth microdilution; format: cell-based, Staphylococcus aureus; conditions: Staphylococcus aureus
How it was run: as §1

MRSA ATCC 700789 VRSA = assay: MIC, broth microdilution; format: cell-based, Staphylococcus aureus; conditions: Staphylococcus aureus
How it was run: as §1

MRSA ATCC BAA-38 = assay: MIC, broth microdilution; format: cell-based, Staphylococcus aureus; conditions: Staphylococcus aureus
How it was run: as §1

MRSA ATCC BAA-39 = assay: MIC, broth microdilution; format: cell-based, Staphylococcus aureus; conditions: Staphylococcus aureus
How it was run: as §1

MRSA ATCC BAA-44 = assay: MIC, broth microdilution; format: cell-based, Staphylococcus aureus; conditions: Staphylococcus aureus
How it was run: as §1

S. aureus ATCC 29213 = assay: MIC, broth microdilution; format: cell-based, Staphylococcus aureus; conditions: Staphylococcus aureus, ATCC29213
How it was run: as §1

E. faecalis ATCC 29302 = assay: MIC, broth microdilution; format: cell-based; conditions: Enterococcus faecalis, ATCC29302
How it was run: as §1

VRE ATCC 700221 (vanA) = assay: MIC, broth microdilution; format: cell-based, enterococci; conditions: Enterococcus
How it was run: as §1

VRE ATCC 700425 (vanC) = assay: MIC, broth microdilution; format: cell-based, enterococci; conditions: Enterococcus
How it was run: as §1

VRE ATCC 700802 (vanB) = assay: MIC, broth microdilution; format: cell-based, enterococci; conditions: Enterococcus
How it was run: as §1

Orf2* [1] = biological target: T1, Orf2* (Actinoplanes teichomyceticus, UniProt A0A561VD00); assay: ITC binding affinity; conditions: ITC versus Orf2*
Procedure: (§2) Isothermal Titration Calormetry (ITC) Analysis
(§3) A stock solution (50 mM) was prepared by dissolving r6,GlcNAc pseudoaglycone (9) in 50% DMSO. The 1 mM protein solutions of Orf2*, Orf2*T and Dbv27 were prepared in a 50 mM HEPES buffer solution at pH 8.0. The solution (50 mM HEPES, pH8.0 and 10% DMSO) that contained compound 9 (1 mM) or S-adenosylmethionine (SAM) (1 mM) in a 40 μL injection syringe was titrated into the Orf2*, Orf2*T or Dbv27 (0.1 mM) protein solution, which was placed in the sample cell of a 200 μL volume. Each titration consisted of 16 injections of a 2 μL4 s^−1 duration in an interval of 150 seconds. Data analysis was performed by software.

Orf2*T = biological target: T2, Orf2*T (Actinoplanes teichomyceticus, UniProt A0A561VD00, F193Y/S98A/V121A); assay: ITC binding affinity; conditions: ITC versus Orf2*T
T2 sequence (A0A561VD00 with tags, fused parts or gaps S98A/V121A/F193Y): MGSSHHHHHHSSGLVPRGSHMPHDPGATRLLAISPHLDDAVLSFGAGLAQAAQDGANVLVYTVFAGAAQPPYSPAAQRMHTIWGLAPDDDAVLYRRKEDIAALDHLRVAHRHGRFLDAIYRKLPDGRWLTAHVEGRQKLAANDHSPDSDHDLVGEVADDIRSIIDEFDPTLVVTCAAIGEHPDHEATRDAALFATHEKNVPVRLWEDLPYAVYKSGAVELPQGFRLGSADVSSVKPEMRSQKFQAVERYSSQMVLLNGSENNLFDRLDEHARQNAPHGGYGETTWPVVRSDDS
Procedure: as §2, §3

Orf2* [2] = biological target: T1, Orf2*; assay: Deacetylation catalytic specificity; format: biochemical; conditions: substrate of Orf2* (WT)

T1 sequence (A0A561VD00 entry or part of it): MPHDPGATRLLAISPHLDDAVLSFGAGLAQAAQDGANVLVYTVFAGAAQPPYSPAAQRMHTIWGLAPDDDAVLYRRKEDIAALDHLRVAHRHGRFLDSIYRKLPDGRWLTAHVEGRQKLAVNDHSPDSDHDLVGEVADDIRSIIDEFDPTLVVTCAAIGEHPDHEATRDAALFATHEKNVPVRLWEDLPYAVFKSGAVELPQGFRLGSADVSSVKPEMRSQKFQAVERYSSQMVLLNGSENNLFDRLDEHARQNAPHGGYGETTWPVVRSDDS

## CC(=O)N[C@H]1[C@H](O[C@@H]2c3ccc(c(Cl)c3)Oc3cc4cc(c3O)Oc3ccc(cc3Cl)C[C@H]3NC(=O)[C@H](N)c5ccc(O)c(c5)Oc5cc(O)cc(c5)[C@H](NC3=O)C(=O)N[C@H]4C(=O)N[C@H]3C(=O)N[C@@H]2C(=O)N[C@H](C(=O)O)c2cc(O)cc(O)c2-c2cc3ccc2O)O[C@H](CO)[C@@H](O)[C@@H]1O [Compound 9, r6,GlcNAc Tei-pseudoaglycone]
MRSA ATCC 43300
  MIC: 0.25 µg/mL (≈ 0.178 µM)
MRSA ATCC 700698 hVISA
  MIC: 1 µg/mL (≈ 0.713 µM)
MRSA ATCC 700787 VRSA
  MIC: 0.5 µg/mL (≈ 0.357 µM)
MRSA ATCC 700789 VRSA
  MIC: 2 µg/mL (≈ 1.43 µM)
MRSA ATCC BAA-38
  MIC: 0.25 µg/mL (≈ 0.178 µM)
MRSA ATCC BAA-39
  MIC: 0.125 µg/mL (≈ 0.0892 µM)
MRSA ATCC BAA-44
  MIC: 0.125 µg/mL (≈ 0.0892 µM)
S. aureus ATCC 29213
  MIC: 0.25 µg/mL (≈ 0.178 µM)
E. faecalis ATCC 29302
  MIC: 2 µg/mL (≈ 1.43 µM)
VRE ATCC 700221 (vanA)
  MIC: > 128 µg/mL
VRE ATCC 700425 (vanC)
  MIC: 4 µg/mL (≈ 2.85 µM)
VRE ATCC 700802 (vanB)
  MIC: 4 µg/mL (≈ 2.85 µM)
Orf2* [1]
  Kd: 1.42 ± 1.1 mM
Orf2*T
  Kd: 125 ± 14 µM

## CC(=O)N[C@H]1[C@H](Oc2c3cc4cc2Oc2ccc(cc2Cl)[C@@H](O)[C@@H]2NC(=O)[C@H](NC(=O)[C@@H]4NC(=O)[C@H]4NC(=O)[C@@H](Cc5ccc(c(Cl)c5)O3)NC(=O)[C@H](N)c3ccc(O)c(c3)Oc3cc(O)cc4c3)c3ccc(O)c(c3)-c3c(O)cc(O)cc3[C@@H](C(=O)O)NC2=O)O[C@H](CO)[C@@H](O)[C@@H]1O [Compound 5, r4,GlcNAc Tei-pseudoaglycone]
Orf2* [2]
  kcatKm^−1: 377.3 s⁻¹ mM⁻¹
